Source: patent US20180194762A1 (Pharmacyclics LLC, priority 2017, published 2018)

Tests used:
Assay type in all cases: biochemical
Btk = molecular target: T1, Btk (Homo sapiens, UniProt Q06187); test: Btk in vitro inhibitory activity (one of Method A TR-FRET, Method B electrophoretic mobility shift, Method C radiometric filter binding); settings: wild-type Btk; read-out: Btk-WT IC50
T1 construct: purified from insect cells as a full-length construct containing a N-terminal 6X-His tag; His6 (N); made in house; host or cells: insect cells (Method C)
How it was run: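 Method A: TR-FRET with 0.5 nM Btk at [ATP]=Km, EDTA-quenched, 665/615 nm ratio; Ki(app) converted to IC50. Method B: 1 nM full-length His6 human BTK, 1 μM FAM peptide, pH 7.5, mobility-shift product/sum ratio, 12-point 4-parameter fit. Method C: radiometric filter binding, 8 nM His-tagged BTK, 0.2 mg/mL poly-Glu-Tyr.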

TEC = molecular target: T2, TEC (Homo sapiens, UniProt P42680); test: Inhibition of a panel of kinases (in vitro HotSpot kinase assay, 33P-ATP, 1 μM ATP); settings: HotSpot kinase assay, 1 μM ATP
T2 sequence (P42680 1-631): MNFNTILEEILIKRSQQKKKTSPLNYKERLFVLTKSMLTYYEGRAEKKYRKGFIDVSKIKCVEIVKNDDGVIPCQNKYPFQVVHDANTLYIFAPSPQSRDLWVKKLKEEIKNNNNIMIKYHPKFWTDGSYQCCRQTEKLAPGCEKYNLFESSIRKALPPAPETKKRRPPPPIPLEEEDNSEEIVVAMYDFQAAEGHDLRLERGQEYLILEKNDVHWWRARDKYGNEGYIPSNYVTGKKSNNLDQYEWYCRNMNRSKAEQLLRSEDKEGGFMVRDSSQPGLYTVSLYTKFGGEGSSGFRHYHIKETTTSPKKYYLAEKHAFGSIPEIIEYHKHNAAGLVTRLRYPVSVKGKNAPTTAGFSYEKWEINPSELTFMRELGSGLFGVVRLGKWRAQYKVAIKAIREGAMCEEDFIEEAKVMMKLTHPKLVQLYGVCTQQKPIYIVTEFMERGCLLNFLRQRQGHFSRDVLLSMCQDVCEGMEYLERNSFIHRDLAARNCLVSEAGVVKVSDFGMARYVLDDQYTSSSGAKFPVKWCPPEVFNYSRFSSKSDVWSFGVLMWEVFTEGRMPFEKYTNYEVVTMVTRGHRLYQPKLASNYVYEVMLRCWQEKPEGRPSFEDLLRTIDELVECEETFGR
How it was run: (§1)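 Purified kinase enzymes were incubated with an appropriate substrate and 33P-labelled ATP at 1 μM ATP. Inhibition was measured radiometrically from incorporation of the 33P label.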

panel of kinases = molecular target: T3, panel of kinases (Homo sapiens, UniProt P51813); test: Inhibition of a panel of kinases (in vitro HotSpot kinase assay, 33P-ATP, 1 μM ATP), other kinases; settings: BMX wild-type, read-out: BMX-WT IC50
T3 sequence (P51813 1-675): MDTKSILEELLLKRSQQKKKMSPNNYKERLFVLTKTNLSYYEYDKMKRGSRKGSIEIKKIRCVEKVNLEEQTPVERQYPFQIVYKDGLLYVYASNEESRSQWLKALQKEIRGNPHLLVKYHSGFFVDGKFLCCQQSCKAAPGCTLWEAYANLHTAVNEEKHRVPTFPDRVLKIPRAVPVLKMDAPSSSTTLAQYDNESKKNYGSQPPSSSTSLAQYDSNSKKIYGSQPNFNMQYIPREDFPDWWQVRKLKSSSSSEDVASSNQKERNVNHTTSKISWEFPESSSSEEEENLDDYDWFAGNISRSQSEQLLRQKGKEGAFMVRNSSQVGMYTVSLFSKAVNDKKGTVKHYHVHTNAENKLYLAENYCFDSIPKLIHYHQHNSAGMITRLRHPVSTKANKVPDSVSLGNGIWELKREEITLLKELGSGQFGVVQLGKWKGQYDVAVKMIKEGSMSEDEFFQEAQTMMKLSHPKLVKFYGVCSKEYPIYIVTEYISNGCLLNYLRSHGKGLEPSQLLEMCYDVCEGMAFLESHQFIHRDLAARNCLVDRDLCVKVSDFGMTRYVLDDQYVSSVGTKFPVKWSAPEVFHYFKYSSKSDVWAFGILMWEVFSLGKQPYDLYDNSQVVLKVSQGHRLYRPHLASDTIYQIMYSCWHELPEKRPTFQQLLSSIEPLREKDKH
How it was run: as §1

T1 sequence (Q06187 whole entry): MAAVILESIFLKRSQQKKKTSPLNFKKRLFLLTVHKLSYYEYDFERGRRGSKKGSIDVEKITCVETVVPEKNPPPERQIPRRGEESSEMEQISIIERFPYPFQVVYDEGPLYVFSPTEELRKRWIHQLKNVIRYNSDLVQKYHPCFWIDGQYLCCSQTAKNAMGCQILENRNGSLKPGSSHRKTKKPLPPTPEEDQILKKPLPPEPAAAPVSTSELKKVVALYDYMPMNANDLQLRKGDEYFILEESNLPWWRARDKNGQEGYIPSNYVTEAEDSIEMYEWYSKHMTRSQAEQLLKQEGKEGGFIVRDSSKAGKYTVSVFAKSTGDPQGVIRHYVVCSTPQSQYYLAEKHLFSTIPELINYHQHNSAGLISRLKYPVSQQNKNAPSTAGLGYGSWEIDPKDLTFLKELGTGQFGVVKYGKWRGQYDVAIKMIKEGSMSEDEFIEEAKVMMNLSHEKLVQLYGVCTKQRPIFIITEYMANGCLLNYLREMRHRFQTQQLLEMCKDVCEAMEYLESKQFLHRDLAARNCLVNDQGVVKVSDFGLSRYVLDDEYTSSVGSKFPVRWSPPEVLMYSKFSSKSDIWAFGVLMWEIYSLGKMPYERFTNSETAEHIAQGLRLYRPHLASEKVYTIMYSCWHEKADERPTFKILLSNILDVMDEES

SMILES	IC50 (Btk)	IC50 (TEC)	IC50 (panel of kinases)
C=CC(=O)N1CC[C@@H](Nc2n[nH]c3nccc(-c4ccc(CNC(=O)c5cc(-c6ccccc6)on5)c(F)c4)c23)C1 [Example 345, N-{[2-fluoro-4-(3-{[(3R)-1-(prop-2-enoyl)pyrrolidin-3-yl]amino}-1H-pyrazolo[3,4-b]pyridin-4-yl)phenyl]methyl}-5-phenyl-1,2-oxazole-3-carboxamide]	30.6 nM	253 nM	55.7 nM
C=CC(=O)N(C)[C@@H]1CCN(c2n[nH]c3nccc(-c4ccc(CNC(=O)c5nc(C(C)(C)C)no5)c(F)c4)c23)C1 [Example 347, 3-tert-butyl-N-{[2-fluoro-4-(3-{(3R)-3-[methyl(prop-2-enoyl)amino]pyrrolidin-1-yl}-1H-pyrazolo[3,4-b]pyridin-4-yl)phenyl]methyl}-1,2,4-oxadiazole-5-carboxamide]	0.0423 nM	9.02 nM	15.8 nM
CC(=O)N[C@@H]1CCN(c2n[nH]c3nccc(-c4ccc([C@@H](C)NC(=O)c5cc(C(C)(C)O)on5)c(F)c4)c23)C1 [Example 349, N-[(1R)-1-(4-{3-[(3R)-3-acetamidopyrrolidin-1-yl]-1H-pyrazolo[3,4-b]pyridin-4-yl}-2-fluorophenyl)ethyl]-5-(2-hydroxypropan-2-yl)-1,2-oxazole-3-carboxamide]	3.99 nM	1480 nM	1330 nM
C=CC(=O)N1CC[C@@H](Nc2n[nH]c3nccc(-c4ccc(CNC(=O)c5ccc6c(c5)OCCCO6)c(F)c4)c23)C1 [Example 351, (R)-N-{[2-fluoro-4-(3-{[1-(prop-2-enoyl)pyrrolidin-3-yl]amino}-1H-pyrazolo[3,4-b]pyridin-4-yl)phenyl]methyl}-3,4-dihydro-2H-1,5-benzodioxepine-7-carboxamide]	4.43 nM	340 nM	95.7 nM
C=CC(=O)N[C@@H]1CCN(c2n[nH]c3nccc(-c4ccc([C@@H](C)NC(=O)c5cc(C(C)(C)O)on5)c(F)c4)c23)C1 [Example 353, N-{(1R)-1-[2-fluoro-4-(3-{(3R)-3-[(prop-2-enoyl)amino]pyrrolidin-1-yl}-1H-pyrazolo[3,4-b]pyridin-4-yl)phenyl]ethyl}-5-(2-hydroxypropan-2-yl)-1,2-oxazole-3-carboxamide]	0.244 nM	67.8 nM	35 nM
CC(=O)N[C@@H]1CCN(c2n[nH]c3nccc(-c4ccc(CNC(=O)c5nc6c(s5)CCCC6)c(F)c4)c23)C1 [Example 356, N-[(4-{3-[(3R)-3-acetamidopyrrolidin-1-yl]-1H-pyrazolo[3,4-b]pyridin-4-yl}-2-fluorophenyl)methyl]-4,5,6,7-tetrahydro-1,3-benzothiazole-2-carboxamide]	11.8 nM	5380 nM	2050 nM
CC(C)c1nc(C(=O)NCc2ccc(-c3ccnc4[nH]nc(N5CC[C@@H](N)C5)c34)cc2F)co1 [Example 357, N-[(4-{3-[(3R)-3-aminopyrrolidin-1-yl]-1H-pyrazolo[3,4-b]pyridin-4-yl}-2-fluorophenyl)methyl]-2-(propan-2-yl)-1,3-oxazole-4-carboxamide]	31 nM	4880 nM	1770 nM
C=CC(=O)N[C@@H]1CCN(c2n[nH]c3nccc(-c4ccc(CNC(=O)c5coc(C(C)C)n5)c(F)c4)c23)C1 [Example 359, N-{[2-fluoro-4-(3-{(3R)-3-[(prop-2-enoyl)amino]pyrrolidin-1-yl}-1H-pyrazolo[3,4-b]pyridin-4-yl)phenyl]methyl}-2-(propan-2-yl)-1,3-oxazole-4-carboxamide]	0.402 nM	68.5 nM	58.8 nM
CC(=O)N[C@@H]1CCN(c2n[nH]c3nccc(-c4ccc(CNC(=O)c5coc(C(C)C)n5)c(F)c4)c23)C1 [Example 360, N-[(4-{3-[(3R)-3-acetamidopyrrolidin-1-yl]-1H-pyrazolo[3,4-b]pyridin-4-yl}-2-fluorophenyl)methyl]-2-(propan-2-yl)-1,3-oxazole-4-carboxamide]	14.3 nM	3210 nM	3430 nM
C=CC(=O)N1CC[C@@H](Nc2n[nH]c3nccc(-c4ccc(CNC(=O)c5ccc6scnc6c5)c(F)c4)c23)C1 [Example 362, N-{[2-fluoro-4-(3-{[(3R)-1-(prop-2-enoyl)pyrrolidin-3-yl]amino}-1H-pyrazolo[3,4-b]pyridin-4-yl)phenyl]methyl}-1,3-benzothiazole-5-carboxamide]	0.727 nM	73.3 nM	19 nM
C=CC(=O)NC1CCN(c2n[nH]c3nccc(-c4ccc([C@@H](C)NC(=O)c5cc(C(C)(C)O)on5)cc4)c23)CC1 [Example 364, 5-(2-hydroxypropan-2-yl)-N-{(1R)-1-[4-(3-{4-[(prop-2-enoyl)amino]piperidin-1-yl}-1H-pyrazolo[3,4-b]pyridin-4-yl)phenyl]ethyl}-1,2-oxazole-3-carboxamide]	54.7 nM	9390 nM	5770 nM
CC(=O)NC1CCN(c2n[nH]c3nccc(-c4ccc([C@@H](C)NC(=O)c5cc(C(C)(C)O)on5)cc4)c23)CC1 [Example 365, N-[(1R)-1-{4-[3-(4-acetamidopiperidin-1-yl)-1H-pyrazolo[3,4-b]pyridin-4-yl]phenyl}ethyl]-5-(2-hydroxypropan-2-yl)-1,2-oxazole-3-carboxamide]	46.2 nM	6160 nM	3040 nM
N[C@@H]1CCN(c2n[nH]c3nccc(-c4ccc(CNC(=O)c5nc6c(s5)CCCC6)c(F)c4)c23)C1 [Example 366, N-[(4-{3-[(3R)-3-aminopyrrolidin-1-yl]-1H-pyrazolo[3,4-b]pyridin-4-yl}-2-fluorophenyl)methyl]-4,5,6,7-tetrahydro-1,3-benzothiazole-2-carboxamide]	21.9 nM	7070 nM	1320 nM
C=CC(=O)N[C@@H]1CCN(c2n[nH]c3nccc(-c4ccc(CNC(=O)c5noc(C(C)C)n5)c(F)c4)c23)C1 [Example 367, N-{[2-fluoro-4-(3-{(3R)-3-[(prop-2-enoyl)amino]pyrrolidin-1-yl}-1H-pyrazolo[3,4-b]pyridin-4-yl)phenyl]methyl}-5-(propan-2-yl)-1,2,4-oxadiazole-3-carboxamide]	0.058 nM	47.4 nM	26.5 nM
CC(=O)N[C@@H]1CCN(c2n[nH]c3nccc(-c4ccc(CNC(=O)c5noc(C(C)C)n5)c(F)c4)c23)C1 [Example 369, N-[(4-{3-[(3R)-3-acetamidopyrrolidin-1-yl]-1H-pyrazolo[3,4-b]pyridin-4-yl}-2-fluorophenyl)methyl]-5-(propan-2-yl)-1,2,4-oxadiazole-3-carboxamide]	4.66 nM	1480 nM	1140 nM
CC(C)c1nc(C(=O)NCc2ccc(-c3ccnc4[nH]nc(N5CC[C@@H](N)C5)c34)cc2F)no1 [Example 370, N-[(4-{3-[(3R)-3-aminopyrrolidin-1-yl]-1H-pyrazolo[3,4-b]pyridin-4-yl}-2-fluorophenyl)methyl]-5-(propan-2-yl)-1,2,4-oxadiazole-3-carboxamide]	6.98 nM	3880 nM	1740 nM
C=CC(=O)N1CC[C@@H](Nc2n[nH]c3nccc(-c4ccc([C@@H](C)NC(=O)c5noc(C(C)(C)C)n5)c(F)c4)c23)C1 [Example 372, 5-tert-butyl-N-{(1R)-1-[2-fluoro-4-(3-{[(3R)-1-(prop-2-enoyl)pyrrolidin-3-yl]amino}-1H-pyrazolo[3,4-b]pyridin-4-yl)phenyl]ethyl}-1,2,4-oxadiazole-3-carboxamide]	0.0597 nM	30.5 nM	36 nM
